Measurements: ChEMBL document CHEMBL3885861, “Open TG-GATES”

Organism: Rattus norvegicus
Experiment: Open TG-GATES - Regimen: Single
Type: toxicity, organism-based, Sprague-Dawley
Set-up: regimen Single, gender Male, age 6 weeks
Conditions: in vivo, po, 30 mg/kg, route gavage, dose level Middle; for APTT / Bas / Eos / Fbg / Hb / Ht / Lym / MCH / MCHC / MCV / Mono / Neu / PT / Plat / RBC / Ret / WBC: tissue Blood; for A/G / ALP / ALT / AST / BUN / CRE / Ca / Cl / DBIL / GLC / IP / K / LDH / Na / PL / RALB / TBIL / TC / TG / TP / gamma-GTP: tissue Plasma

`Cn1cc[nH]c1=S` [METHIMAZOLE] gave a TERMINAL_BW (3 h) of 210.9 g, an APTT (3 h) of 22.2 s and a Bas (3 h) of 0%. For the same molecule, the Eos (3 h) was 1%, the Fbg (3 h) was 305 mg/dL and the Hb (3 h) was 14.3 g/dL. For the same molecule, the Ht (3 h) was 40.3%, the Lym (3 h) was 73.2% and the MCH (3 h) was 21.7 pg. The MCHC (3 h) was 35.4%, the MCV (3 h) was 61.4 fL and the Mono (3 h) was 3%. It also gave a Neu (3 h) of 21.8%, a PT (3 h) of 15.9 s and a Plat (3 h) of 120.3 x10_4/uL. For the same molecule, the RBC (3 h) was 657.4 x10_4/ul, the Ret (3 h) was 8% and the WBC (3 h) was 65.4 x10_2/uL. For the same molecule, the A/G (3 h) was 1.1, the ALP (3 h) was 1707.8 IU/L and the ALT (3 h) was 42.8 IU/L. The AST (3 h) was 72.2 IU/L, the BUN (3 h) was 10.4 mg/dL and the CRE (3 h) was 0.1 mg/dL. For the same molecule, the Ca (3 h) was 10.7 mg/dL, the Cl (3 h) was 105 meq/L and the DBIL (3 h) was 0 mg/dL. For the same molecule, the GLC (3 h) was 186.4 mg/dL, the IP (3 h) was 10.1 mg/dL and the K (3 h) was 4.3 meq/L. It also gave an LDH (3 h) of 250.2 IU/L, a Na (3 h) of 141.6 meq/L and a PL (3 h) of 146 mg/dL. For the same molecule, the RALB (3 h) was 2.9 g/dL, the TBIL (3 h) was 0.006 mg/dL and the TC (3 h) was 82.4 mg/dL. The TG (3 h) was 64.4 mg/dL, the TP (3 h) was 5.7 g/dL and the gamma-GTP (3 h) was 1 IU/L. It also gave a TERMINAL_BW (6 h) of 208.1 g, an APTT (6 h) of 22.7 s and a Bas (6 h) of 0%. The Eos (6 h) was 1%, the Fbg (6 h) was 316.8 mg/dL and the Hb (6 h) was 14 g/dL. For the same molecule, the Ht (6 h) was 40%, the Lym (6 h) was 73.6% and the MCH (6 h) was 22 pg. For the same molecule, the MCHC (6 h) was 35%, the MCV (6 h) was 62.7 fL and the Mono (6 h) was 2.8%. It also gave a Neu (6 h) of 21.8%, a PT (6 h) of 16.2 s and a Plat (6 h) of 123.7 x10_4/uL. For the same molecule, the RBC (6 h) was 637.2 x10_4/ul, the Ret (6 h) was 8.4% and the WBC (6 h) was 68.1 x10_2/uL. The A/G (6 h) was 1.2, the ALP (6 h) was 1225.2 IU/L and the ALT (6 h) was 46.2 IU/L. For the same molecule, the AST (6 h) was 71.8 IU/L, the BUN (6 h) was 11.8 mg/dL and the CRE (6 h) was 0.1 mg/dL. The Ca (6 h) was 10.6 mg/dL, the Cl (6 h) was 103.4 meq/L and the DBIL (6 h) was 0.002 mg/dL. For the same molecule, the GLC (6 h) was 196.2 mg/dL, the IP (6 h) was 9.4 mg/dL and the K (6 h) was 4.2 meq/L. It also gave an LDH (6 h) of 329.8 IU/L, a Na (6 h) of 140.4 meq/L and a PL (6 h) of 141.2 mg/dL. It also gave an RALB (6 h) of 2.9 g/dL, a TBIL (6 h) of 0.01 mg/dL and a TC (6 h) of 79.8 mg/dL. The TG (6 h) was 45 mg/dL, the TP (6 h) was 5.5 g/dL and the gamma-GTP (6 h) was 1 IU/L. The TERMINAL_BW (9 h) was 205.3 g, the APTT (9 h) was 22.1 s and the Bas (9 h) was 0%. For the same molecule, the Eos (9 h) was 1.2%, the Fbg (9 h) was 299.8 mg/dL and the Hb (9 h) was 13.7 g/dL. It also gave a Ht (9 h) of 38.8%, a Lym (9 h) of 75.4% and an MCH (9 h) of 21.5 pg. It also gave an MCHC (9 h) of 35.4%, an MCV (9 h) of 60.8 fL and a Mono (9 h) of 2.4%. The Neu (9 h) was 20.2%, the PT (9 h) was 15.7 s and the Plat (9 h) was 121.8 x10_4/uL. It also gave an RBC (9 h) of 640 x10_4/ul, a Ret (9 h) of 8.1% and a WBC (9 h) of 70 x10_2/uL. For the same molecule, the A/G (9 h) was 1.2, the ALP (9 h) was 1422 IU/L and the ALT (9 h) was 43.8 IU/L. The AST (9 h) was 71.4 IU/L, the BUN (9 h) was 12.8 mg/dL and the CRE (9 h) was 0.1 mg/dL. It also gave a Ca (9 h) of 10.5 mg/dL, a Cl (9 h) of 105.2 meq/L and a DBIL (9 h) of 0.004 mg/dL. For the same molecule, the GLC (9 h) was 198 mg/dL, the IP (9 h) was 8.7 mg/dL and the K (9 h) was 3.8 meq/L. For the same molecule, the LDH (9 h) was 353.6 IU/L, the Na (9 h) was 140.6 meq/L and the PL (9 h) was 155.8 mg/dL. It also gave an RALB (9 h) of 3 g/dL, a TBIL (9 h) of 0.012 mg/dL and a TC (9 h) of 85.4 mg/dL. It also gave a TG (9 h) of 81 mg/dL, a TP (9 h) of 5.6 g/dL and a gamma-GTP (9 h) of 1 IU/L. For the same molecule, the TERMINAL_BW (24 h) was 212.4 g, the APTT (24 h) was 21 s and the Bas (24 h) was 0%. The Eos (24 h) was 1%, the Fbg (24 h) was 320.4 mg/dL and the Hb (24 h) was 13.9 g/dL. The Ht (24 h) was 39.6%, the Lym (24 h) was 76.6% and the MCH (24 h) was 21.8 pg. The MCHC (24 h) was 35.2%, the MCV (24 h) was 62 fL and the Mono (24 h) was 2.4%. For the same molecule, the Neu (24 h) was 19%, the PT (24 h) was 16.3 s and the Plat (24 h) was 115.8 x10_4/uL. The RBC (24 h) was 640 x10_4/ul, the Ret (24 h) was 7.8% and the WBC (24 h) was 84 x10_2/uL. The A/G (24 h) was 1.1, the ALP (24 h) was 1634.4 IU/L and the ALT (24 h) was 42.4 IU/L. For the same molecule, the AST (24 h) was 64.6 IU/L, the BUN (24 h) was 15.4 mg/dL and the CRE (24 h) was 0.1 mg/dL. For the same molecule, the Ca (24 h) was 10.7 mg/dL, the Cl (24 h) was 106 meq/L and the DBIL (24 h) was 0 mg/dL. The GLC (24 h) was 180.6 mg/dL, the IP (24 h) was 7 mg/dL and the K (24 h) was 4.4 meq/L. For the same molecule, the LDH (24 h) was 211.4 IU/L, the Na (24 h) was 141.6 meq/L and the PL (24 h) was 158.6 mg/dL. For the same molecule, the RALB (24 h) was 3 g/dL, the TBIL (24 h) was 0.002 mg/dL and the TC (24 h) was 84.6 mg/dL. For the same molecule, the TG (24 h) was 131.4 mg/dL, the TP (24 h) was 5.6 g/dL and the gamma-GTP (24 h) was 1 IU/L.
